Like-named read-outs stand apart in the source and are kept apart here.
Key:
[1] = molecular target: T1, KRAS (WT) (Homo sapiens, UniProt P01116); assay: In-vitro RAS-RAF binding assay (RRB), HTRF/FRET; assay type: biochemical; details: read-out: Inhibition of RAS-RAF Binding (in-vitro) KRAS (WT) IC50
T1 construct: Biotinylated KRAS protein amino acids 1-169 (produced at Erasca); made in house
Method: (§1) Biotinylated KRAS protein amino acids 1-169 (produced at […]) is labeled with streptavidin-terbium (lanthanide cryptate donor fluorophore) in assay buffer (50 mM HEPES, pH 7.5, 100 mM NaCl, 1 mM MgCl2, 1 mM DTT) at a final concentration of 30 nM. In a separate reaction mixture, 30 nM cRAF (RBD) (Abcam, Cambridge MA) is labeled with anti-GST d2 (acceptor fluorophore). Labeling reactions are incubated for 1 hour at room temperature. […] Following the compound incubation, SOS1 catalytic domain (produced at […]) and GTPgS are added to the reaction to initiate nucleotide exchange (60 minutes exchange reaction). Once in the GTP state KRAS will bind to cRAF. No binding will occur if KRAS remains in the GDP state. Compounds may block nucleotide exchange or may create a steric obstruction to cRAF-KRAS interaction by binding to the RAS effector site. […] A portion of this mixture is transferred to a white 384-well plate (20 uL per well in duplicate) and read on an HTRF compatible plate reader (ClarioSTAR). Fluorescent resonance energy transfer (FRET) is measured at equilibrium. FRET signal will be high if KRAS-cRAF binding occurs. FRET signal will be low if KRAS-cRAF binding is inhibited by the test compound. Table 2 represents the average of multiple runs of each compound.

[2] = molecular target: KRAS G12D (Homo sapiens, UniProt P01116, G12D); assay: In-vitro RAS-RAF binding assay (RRB), HTRF/FRET; assay type: biochemical; design: Biotinylated KRAS protein amino acids 1-169 (produced at Erasca); made in house; details: read-out: Inhibition of RAS-RAF Binding (in-vitro) KRAS (G12D) IC50
KRAS G12D, sequence (P01116 1-169 isoform P01116-2 G12D): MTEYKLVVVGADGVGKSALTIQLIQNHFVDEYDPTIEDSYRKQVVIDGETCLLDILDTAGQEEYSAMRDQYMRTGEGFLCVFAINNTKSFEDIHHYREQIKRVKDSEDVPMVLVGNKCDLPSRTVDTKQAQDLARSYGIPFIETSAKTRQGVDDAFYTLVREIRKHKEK
Method: as §1

[3] = Table 2, average of multiple runs of each compound

T1 sequence (P01116 1-169 isoform P01116-2): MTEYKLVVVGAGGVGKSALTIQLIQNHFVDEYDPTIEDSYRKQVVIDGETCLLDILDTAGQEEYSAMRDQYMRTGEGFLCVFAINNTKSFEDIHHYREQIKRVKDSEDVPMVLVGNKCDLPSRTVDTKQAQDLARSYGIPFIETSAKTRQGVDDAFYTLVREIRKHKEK

Structure (SMILES)	IC50 ([1]; Table 1) [nM]	IC50 [1, 3] [nM]	IC50 ([2]; Table 1) [nM]	IC50 [2, 3] [nM]
Cc1cc(N)nc(-c2c(Cl)cc3c(N4CC5CCC(C4)N5)nc(OC[C@@H]4CCCN4CCCOCCCOc4cc(-c5scnc5C)ccc4CNC(=O)[C@@H]4C[C@@H](O)CN4C(=O)[C@H](NC(=O)C4(F)CC4)C(C)(C)C)nc3c2F)c1C(F)(F)F [Example 3, (2S,4R)—N-[[2-[3-[3-[(2S)-2-[[7-[6-amino-4-methyl-3-(trifluoromethyl)-2-pyridyl]-6-chloro-4-(3,8-diazabicyclo[3.2.1]octan-3-yl)-8-fluoro-quinazolin-2-yl]oxymethyl]pyrrolidin-1-yl]propoxy]propoxy]-4-(4-methylthiazol-5-yl)phenyl]methyl]-1-[(2R)-2-[(1-fluorocyclopropanecarbonyl)amino]-3,3-dimethyl-butanoyl]-4-hydroxy-pyrrolidine-2-carboxamide]	> 10000	> 10000	64	64.3
Cc1cc(N)nc(-c2c(Cl)cc3c(N4CC5CCC(C4)N5)nc(OC[C@@H]4CCCN4CCCCCCCN4CCC(c5cc(F)cc6c5CN(C5CCC(=O)NC5=O)C6=O)CC4)nc3c2F)c1C(F)(F)F (stereo partly drawn) [Example 5, 3-[4-[1-[7-[(2S)-2-[[7-[6-amino-4-methyl-3-(trifluoromethyl)-2-pyridyl]-6-chloro-4-(3,8-diazabicyclo[3.2.1]octan-3-yl)-8-fluoro-quinazolin-2-yl]oxymethyl]pyrrolidin-1-yl]heptyl]-4-piperidyl]-6-fluoro-1-oxo-isoindolin-2-yl]piperidine-2,6-dione]	2440	4920	19	18.8
C#Cc1c(F)ccc2cc(O)cc(-c3ncc4c(N5CC6CCC(C5)N6)nc(OCCN5CCC(F)(COc6cc([C@H](C(=O)N7C[C@H](O)C[C@H]7C(=O)N[C@@H](C)c7ccc(-c8c(F)cccc8F)cc7)C(C)C)on6)CC5)nc4c3F)c12 [Example 62, (2S,4R)-1-((2R)-2-(3-((1-(2-((4-(3,8-diazabicyclo[3.2.1]octan-3-yl)-7-(8-ethynyl-7-fluoro-3-hydroxynaphthalen-1-yl)-8-fluoropyrido[4,3-d]pyrimidin-2-yl)oxy)ethyl)-4-fluoropiperidin-4-yl)methoxy)isoxazol-5-yl)-3-methylbutanoyl)-N-((S)-1-(2′,6′-difluoro-[1,1′-biphenyl]-4-yl)ethyl)-4-hydroxypyrrolidine-2-carboxamide]	–	> 10000	–	13.4
C#Cc1c(F)ccc2cc(O)cc(-c3ncc4c(N5CC6CCC(C5)N6)nc(OCCN5CCC(COc6cc([C@H](C(=O)N7C[C@H](O)C[C@H]7C(=O)N[C@@H](C)c7ccc(-c8c(F)cc(F)cc8F)cc7)C(C)C)on6)CC5)nc4c3F)c12 [Example 63, (2S,4R)-1-((2R)-2-(3-((1-(2-((4-(3,8-diazabicyclo[3.2.1]octan-3-yl)-7-(8-ethynyl-7-fluoro-3-hydroxynaphthalen-1-yl)-8-fluoropyrido[4,3-d]pyrimidin-2-yl)oxy)ethyl)piperidin-4-yl)methoxy)isoxazol-5-yl)-3-methylbutanoyl)-4-hydroxy-N-((S)-1-(2′,4′,6′-trifluoro-[1,1′-biphenyl]-4-yl)ethyl)pyrrolidine-2-carboxamide]	–	8330	–	10.6
C#Cc1c(F)ccc2cc(O)cc(-c3ncc4c(N5CC6CCC(C5)N6)nc(OCCN5CCC6(CC5)CN(c5cc([C@H](C(=O)N7C[C@H](O)C[C@H]7C(=O)N[C@@H](C)c7ccc(-c8c(F)cc(F)cc8F)cc7)C(C)C)on5)C6)nc4c3F)c12 [Example 36, (2S,4R)-1-((2R)-2-(3-(7-(2-((4-(3,8-diazabicyclo[3.2.1]octan-3-yl)-7-(8-ethynyl-7-fluoro-3-hydroxynaphthalen-1-yl)-8-fluoropyrido[4,3-d]pyrimidin-2-yl)oxy)ethyl)-2,7-diazaspiro[3.5]nonan-2-yl)isoxazol-5-yl)-3-methylbutanoyl)-4-hydroxy-N—((S)-1-(2′,4′,6′-trifluoro-[1,1′-biphenyl]-4-yl)ethyl)pyrrolidine-2-carboxamide]	–	1070	–	9.85
C#Cc1c(F)ccc2cc(O)cc(-c3ncc4c(N5CC6CCC(C5)N6)nc(OC[C@@H]5CCCN5CCCOCCC(=O)O[C@H](C(=O)N5C[C@H](O)C[C@H]5C(=O)N[C@@H](C)c5ccc(-c6c(C)cccc6C(F)(F)F)cc5)C(C)(C)C)nc4c3F)c12 [Example 50, (S)-1-((2S,4R)-4-hydroxy-2-(((S)-1-(2′-methyl-6′-(trifluoromethyl)-[1,1′-biphenyl]-4-yl)ethyl)carbamoyl)pyrrolidin-1-yl)-3,3-dimethyl-1-oxobutan-2-yl 3-(3-((2S)-2-(((4-(3,8-diazabicyclo[3.2.1]octan-3-yl)-7-(8-ethynyl-7-fluoro-3-hydroxynaphthalen-1-yl)-8-fluoropyrido[4,3-d]pyrimidin-2-yl)oxy)methyl)pyrrolidin-1-yl)propoxy)propanoate]	–	98.9	–	10.2

Now from value to compound:

IC50 ([1]; Table 1) [nM]	IC50 [1, 3] [nM]	IC50 ([2]; Table 1) [nM]	IC50 [2, 3] [nM]	Structure (SMILES)
–	52.9	–	9.65	C#Cc1c(F)ccc2cc(O)cc(-c3ncc4c(N5CC6CCC(C5)N6)nc(OC[C@@H]5CCCN5CCCOCCC(=O)N[C@H](C(=O)N5C[C@H](O)C[C@H]5C(=O)N[C@@H](C)c5ccc(-c6c(F)c(F)cc(F)c6F)cc5)C(C)(C)C)nc4c3F)c12 [Example 54, (2S,4R)-1-((2S)-2-(3-(3-((2S)-2-(((4-(3,8-diazabicyclo[3.2.1]octan-3-yl)-7-(8-ethynyl-7-fluoro-3-hydroxynaphthalen-1-yl)-8-fluoropyrido[4,3-d]pyrimidin-2-yl)oxy)methyl)pyrrolidin-1-yl)propoxy)propanamido)-3,3-dimethylbutanoyl)-4-hydroxy-N-((S)-1-(2′,3′,5′,6′-tetrafluoro-[1,1′-biphenyl]-4-yl)ethyl)pyrrolidine-2-carboxamide]
–	> 10000	–	> 10000	C[C@H](NC(=O)[C@@H]1C[C@@H](O)CN1C(=O)[C@@H](NC(=O)CCOCCCN1CCC[C@H]1COc1nc(N2CC3CCC(C2)N3)c2cc(C(F)(F)F)c(-c3ccc(F)c4sc(N)c(C#N)c34)c(F)c2n1)C(C)(C)C)c1ccc(-c2c(F)cccc2F)cc1 [Example 79, (2S,4R)-1-((2S)-2-(3-(3-((2S)-2-((((7R)-7-(2-amino-3-cyano-7-fluorobenzo[b]thiophen-4-yl)-4-(3,8-diazabicyclo[3.2.1]octan-3-yl)-8-fluoro-6-(trifluoromethyl)quinazolin-2-yl)oxy)methyl)pyrrolidin-1-yl)propoxy)propanamido)-3,3-dimethylbutanoyl)-N-((S)-1-(2′,6′-difluoro-[1,1′-biphenyl]-4-yl)ethyl)-4-hydroxypyrrolidine-2-carboxamide]
–	≥ 10000	–	19.8	CC(C)[C@@H](C(=O)N1C[C@H](O)C[C@H]1C(=O)N[C@@H](C)c1ccc(-c2c(F)cccc2F)cc1)c1cc(OCC2(C)CCN(CCOc3nc(N4CC5CCC(C4)N5)c4cc(Cl)c(-c5ccc(F)c6sc(N)c(C#N)c56)c(F)c4n3)CC2)no1 [Example 66, (2S,4R)-1-((2R)-2-(3-((1-(2-((7-(2-amino-3-cyano-7-fluorobenzo[b]thiophen-4-yl)-4-(3,8-diazabicyclo[3.2.1]octan-3-yl)-6-chloro-8-fluoroquinazolin-2-yl)oxy)ethyl)-4-methylpiperidin-4-yl)methoxy)isoxazol-5-yl)-3-methylbutanoyl)-N-((S)-1-(2′,6′-difluoro-[1,1′-biphenyl]-4-yl)ethyl)-4-hydroxypyrrolidine-2-carboxamide]
–	275	–	19.4	C[C@H](NC(=O)[C@@H]1C[C@@H](O)CN1C(=O)[C@@H](NC(=O)CCOCCCN1CCC[C@H]1COc1nc(N2CC3CCC(C2)N3)c2cc(Cl)c(-c3ccc(F)c4sc(N)c(C#N)c34)c(F)c2n1)C(C)(C)C)c1ccc(-c2c(F)cc(F)cc2F)cc1 [Example 37, (2S,4R)-1-((2S)-2-(3-(3-((2S)-2-(((7-(2-amino-3-cyano-7-fluorobenzo[b]thiophen-4-yl)-4-(3,8-diazabicyclo[3.2.1]octan-3-yl)-6-chloro-8-fluoroquinazolin-2-yl)oxy)methyl)pyrrolidin-1-yl)propoxy)propanamido)-3,3-dimethylbutanoyl)-4-hydroxy-N—((S)-1-(2′,4′,6′-trifluoro-[1,1′-biphenyl]-4-yl)ethyl)pyrrolidine-2-carboxamide]
–	65	–	12.6	Cc1ncsc1-c1ccc([C@H](C)NC(=O)[C@@H]2C[C@@H](O)CN2C(=O)[C@@H](NC(=O)CCCCN2CC[C@H]2COc2nc(N3CC4CCC(C3)N4)c3cc(Cl)c(-c4ccc(F)c5sc(N)c(C#N)c45)c(F)c3n2)C(C)(C)C)cc1 [Example 23, (2S,4R)-1-((2S)-2-(5-((2S)-2-(((7-(2-amino-3-cyano-7-fluorobenzo[b]thiophen-4-yl)-4-(3,8-diazabicyclo[3.2.1]octan-3-yl)-6-chloro-8-fluoroquinazolin-2-yl)oxy)methyl)azetidin-1-yl)pentanamido)-3,3-dimethylbutanoyl)-4-hydroxy-N—((S)-1-(4-(4-methylthiazol-5-yl)phenyl)ethyl)pyrrolidine-2-carboxamide]

Reference: patent US20240293558A1, “KRAS INHIBITOR CONJUGATES” (Erasca, Inc., priority 2021, published 2024)
